Measured values reported in the NIST ThermoML archive (doi:10.1016/j.jct.2010.12.010).
Where “and” joins values, the source holds several entries; their conditions need not be identical. Equal entries are not always repeated.

Conditions: Liquid, Manometric method

O [water]
Conditions	vapor or sublimation pressure
285.15 K	1.362 kPa
293.15 K	2.277 kPa
295.14 K	2.562 kPa
303.15 K	4.165 kPa
313.15 K	7.284 kPa
315.19 K	8.02 kPa
323.15 K	12.23 kPa
325.11 K	13.5 kPa and 13.53 kPa
325.13 K	13.5 kPa and 13.52 kPa and 13.53 kPa
333.15 K	19.82 kPa
335.12 K	21.77 kPa
343.15 K	31.09 kPa
345.05 K	33.84 kPa
345.07 K	33.85 kPa and 33.84 kPa
353.15 K	47.34 kPa
355.03 K	51.15 kPa
363.15 K	70.22 kPa
364.97 K	75.14 kPa [middle of 5 runs]

NCCCN [1,3-propanediamine]
Conditions	vapor or sublimation pressure
284.84 K	0.3186 kPa and 0.3177 kPa
293.15 K	0.5332 kPa
294.82 K	0.5842 kPa
303.15 K	0.9648 kPa
313.15 K	1.688 kPa
314.79 K	1.829 kPa
323.15 K	2.863 kPa
324.9 K	3.145 kPa
333.15 K	4.72 kPa
334.87 K	5.175 kPa
343.15 K	7.58 kPa
344.87 K	8.263 kPa
353.15 K	11.88 kPa
354.83 K	12.67 kPa
363.15 K	18.22 kPa
364.78 K	19.47 kPa

CC(N)CN (centres undefined) [1,2-propanediamine]
Conditions	vapor or sublimation pressure
284.01 K	0.5922 kPa
293.15 K	1.085 kPa
293.98 K	1.147 kPa and 1.145 kPa
303.15 K	2.004 kPa
303.91 K	2.1 kPa and 2.098 kPa
313.15 K	3.535 kPa
313.84 K	3.667 kPa and 3.669 kPa and 3.659 kPa
323.15 K	5.985 kPa
324.02 K	6.238 kPa
333.15 K	9.764 kPa
334 K	10.11 kPa
343.15 K	15.41 kPa
353.15 K	23.61 kPa
363.15 K	35.21 kPa
363.91 K	36.31 kPa and 36.33 kPa

NCCN [ethane-1,2-diamine]
Conditions	vapor or sublimation pressure
285.5 K	0.659 kPa
293.15 K	1.139 kPa
303.15 K	2.179 kPa
305.44 K	2.559 kPa
313.15 K	3.937 kPa
315.43 K	4.484 kPa
315.48 K	4.485 kPa
323.15 K	6.767 kPa
326.2 K	7.827 kPa
333.15 K	11.13 kPa
335.88 K	12.41 kPa
343.15 K	17.62 kPa
345.7 K	19.74 kPa and 19.73 kPa and 19.72 kPa
353.15 K	26.93 kPa
355.67 K	29.85 kPa and 29.83 kPa
355.69 K	29.84 kPa
363.15 K	39.94 kPa
365.6 K	43.83 kPa [middle of 4 runs]
365.63 K	43.82 kPa and 43.83 kPa and 43.81 kPa

NCCCCN [1,4-butanediamine]
Conditions	vapor or sublimation pressure
284.92 K	0.1292 kPa and 0.1296 kPa
293.15 K	0.2012 kPa
303.15 K	0.3324 kPa
312.83 K	0.54 kPa
313.15 K	0.5322 kPa
323.15 K	0.8282 kPa
332.86 K	1.276 kPa
333.15 K	1.256 kPa
342.85 K	1.703 kPa
343.15 K	1.859 kPa
352.87 K	2.691 kPa and 2.692 kPa
353.15 K	2.692 kPa
362.86 K	3.797 kPa and 3.813 kPa and 3.794 kPa
362.88 K	3.8 kPa
362.9 K	3.807 kPa
363.15 K	3.822 kPa
